Measurements reported in US20030039658A1, “MCEF, a novel transcription factor” (priority 2000, published 2003).

Assay: Geldanamycin cytotoxicity
Format: cell-based

SMILES: COC1=C2C[C@@H](C)C[C@H](OC)[C@H](O)[C@@H](C)/C=C(\C)[C@H](OC(N)=O)[C@@H](OC)/C=C\C=C(/C)C(=O)NC(=CC1=O)C2=O [Geldanamycin]
- cytotoxicity: primarily the result of GA cytotoxicity
